Experimental data as given in the NIST ThermoML archive (doi:10.1016/j.fluid.2013.07.044).

Test: Boiling temperature at pressure P
Conditions: Liquid, Ebulliometric method (Recirculating still)

C1CCCCC1 [cyclohexane]
Conditions	Boiling temperature at pressure P [°C]
24.08 kPa	39.63
30.7 kPa	45.81
38.72 kPa	51.92
46.85 kPa	57.17
55.2 kPa	61.86
61.52 kPa	65.06
69.06 kPa	68.52
77.87 kPa	72.22
85.44 kPa	75.13
91.68 kPa	77.38
101.32 kPa	80.63

CCO [ethanol]
Conditions	Boiling temperature at pressure P [°C]
20.14 kPa	42.46
30.24 kPa	50.67
40.31 kPa	56.77
50.39 kPa	61.69
70.33 kPa	69.34
80.63 kPa	72.62
85.67 kPa	74.11
98.45 kPa	77.53
100.79 kPa	78.13
110.86 kPa	80.53
120.93 kPa	82.77
131.02 kPa	84.84
141.1 kPa	86.79
151.1 kPa	88.62
160 kPa	90.41
170 kPa	92.09
180 kPa	93.62
190 kPa	95.16
200 kPa	96.60

CCCCCCC [heptane]
Conditions	Boiling temperature at pressure P [°C]
10.23 kPa	35.76
16.91 kPa	47.28
23.5 kPa	55.43
35.39 kPa	66.27
56.16 kPa	79.51
67.57 kPa	85.09
74.44 kPa	88.22
79.37 kPa	90.30
86.51 kPa	93.16
100.11 kPa	98.06

CCCCCCCC [octane]
Conditions	Boiling temperature at pressure P [°C]
22.95 kPa	79.68
29.98 kPa	87.07
37.87 kPa	93.74
44.82 kPa	98.74
52.81 kPa	103.78
59.85 kPa	107.72
66.66 kPa	111.21
75.23 kPa	115.23
82.72 kPa	118.44
89.51 kPa	121.17
99.01 kPa	124.72

CCCO [propan-1-ol]
Conditions	Boiling temperature at pressure P [°C]
69.79 kPa	87.71
74.92 kPa	89.5
79.6 kPa	90.96
84.8 kPa	92.6
89.78 kPa	93.99
94.77 kPa	95.37
99.7 kPa	96.67
105.14 kPa	98.2
110.1 kPa	99.27
113.19 kPa	100.00
120.75 kPa	101.73
130.1 kPa	103.76
171 kPa	111.42
199.9 kPa	115.99
228.5 kPa	120.00
229.9 kPa	120.20
260 kPa	123.98
290 kPa	127.42
310 kPa	129.56
330 kPa	131.59
350 kPa	133.54
380 kPa	136.28
400 kPa	138.03
420 kPa	139.69
450 kPa	142.08
480 kPa	144.37
500 kPa	145.81
520 kPa	147.22
530 kPa	147.91
550 kPa	149.26
561.5 kPa	150.01
